{"source": "patent US20250361546A1", "about": "“SCREENING METHODS FOR RNA-CONTROLLING COMPOUNDS” (Veritas In Silico Inc., priority 2018, published 2025)", "assay_type_in_all_cases": "binding", "key": {"A-4-G_Cy5/BHQ2": {"tested_on": "A-4-G_Cy5/BHQ2", "assay": "FRET probe Tm measurement, single probe and 4-probe mixture (Example 5)", "settings": "100 μM compound", "method": "(§1) Four FRET probes with fluorescent modifications corresponding to four wavelengths detectable by a measuring device (CFX384 Touch manufactured by Bio-Rad) were prepared. • FRET probe with Cy5 at the 5′ end and BHQ2 modification at the 3′ end\n(§2) The final levels were 50 nM RNA, 20 mM phosphate buffer (pH 6 5), 50 mM KCl, 1% DMSO, 0.1 μg/μl Bovine Serum Albumin (Takara Bio) or 0.05%-0.1% Tween-20, or 0.05%-0.1% Triton X-100 per probe. In addition, 10 μl solutions were mixed to make 100 μM compound if small compounds were included and incubated at room temperature for 10 minutes.\n(§3) The solutions were dispensed into a 384 well plate, and the plate was kept in a qPCR machine (manufactured by CFX 384 Touch (Bio-Rad Co., Ltd.) for 15 seconds after the temperature was raised to 95° C., which was rapidly cooled to 4° C. and kept for 2 minutes, and then kept at 25° C. for 5 minutes. Then, it was raised to over 95° C. about 40 minutes, and the fluorescence output was measured every 1° C. in 10 seconds. For numerical differentiation of the fluorescence output, a total of seven points from the measured temperature T to plus or minus 3° C. were approximated to a straight line by the least squares method, and the slope was defined as the slope (D1) at the point of the measured temperature T. Similarly, the value of D1 was again subjected to numerical differentiation in the same manner, and the slope (D2) at the point of the measured temperature T was obtained. Here, in parts where the D1 value was 10 or more, the measured temperature T_D1MAX was obtained with D1 at maximum. A total of seven points from this measured temperature T_D1MAX to plus and minus 3° C. were used to calculate the value of T_INF at Y=0 by setting X as T and Y as D2 when the seven points were actually approximated to the line by least squares, and this was set as the Tm value. In addition, the difference (Tm−Tm_NO) in the Tm value (Tm_NO) between wells containing the compound and wells without it was acquired as ΔTm.\n(§4) This work was carried out for single-probe wells and four-probe wells, respectively, to obtain the Tm and ΔTm values shown in Table 6 below."}, "MGA-N_FAM/BHQ1": {"tested_on": "MGA-N_FAM/BHQ1", "assay": "FRET probe Tm measurement, single probe and 4-probe mixture (Example 5)", "settings": "100 μM compound", "method": "• FRET probe with FAM at the 5′ end and BHQ1 modification at the 3′ end\nas §2, §3, §4"}, "FMNA_Alexa532/BHQ1": {"tested_on": "FMNA_Alexa532/BHQ1", "assay": "FRET probe Tm measurement, single probe and 4-probe mixture (Example 5)", "settings": "100 μM compound", "method": "• FRET probe with HEX-equivalent Alexa 532 at the 5′ end and BHQ1 modification at the 3′ end\nas §2, §3, §4"}, "TAR21-G3_Texas Red/BHQ2": {"tested_on": "TAR21-G3_Texas Red/BHQ2", "assay": "FRET probe Tm measurement, single probe and 4-probe mixture (Example 5)", "settings": "100 μM compound", "method": "• FRET probe with Texas Red at the 5′ end and BHQ2 modification at the 3′ end\nas §2, §3, §4"}, "[1]": {"tested_on": "A-4-G_Cy5/BHQ2, MGA-N_FAM/BHQ1, FMNA_Alexa532/BHQ1, TAR21-G3_Texas Red/BHQ2", "assay": "FRET probe Tm measurement, summary over four probes (Example 5)", "settings": "both single probes and mixed probes; 100 μM compound", "method": "as §1\nas §2, with “minutes. […]” for “minutes.”"}, "A-4-G_Cy5/BHQ2 probe": {"tested_on": "A-4-G_Cy5/BHQ2 probe", "assay": "FRET probe Tm measurement with single compounds and compound mixture (Example 6)", "settings": "for ΔTm: 100 μM compound per compound, 50 nM RNA", "method": "(§5) A-4-G_Cy5/BHQ2 probe and the Survivin-native+type probe modified with Cy5 at the 5′ end and BHQ2 at the 3′ end were prepared as shown in Examples 2 and 5.\n(§6) The final levels were 50 nM RNA, 20 mM phosphate buffer (pH 6 5), 50 mM KCl, 1% DMSO, 0.1 μg/μl Bovine Serum Albumin (Takara Bio), or 0.05%-0.1% Tween-20, or 0.05%-0.1% Triton X-100. Further, if a low-molecular weight compound was included, 10 μl solutions were mixed to give 100 μM compound per compound and incubated at room temperature for 10 minutes.\nas §3"}, "[2]": {"tested_on": "Survivin-native+ type probe (Cy5/BHQ2)", "assay": "FRET probe Tm measurement with single compounds and compound mixture (Example 6)", "settings": "for ΔTm: 100 μM compound per compound, 50 nM RNA", "method": "as §5, §6, §3"}, "[3]": {"settings": "4-probe mixture, Cy5 detection, 50 nM RNA per probe"}, "[4]": {"settings": "4-probe mixture, FAM detection, 50 nM RNA per probe"}, "[5]": {"settings": "4-probe mixture, HEX detection, 50 nM RNA per probe"}, "[6]": {"settings": "4-probe mixture, Texas Red detection, 50 nM RNA per probe"}}}
{"smiles": "O=C(O)c1cn(C2CC2)c2cc(N3CCNCC3)c(F)cc2c1=O", "note": "[CPFX, ciprofloxacin]", "values": [{"measurement": "Tm (° C.) with compound", "setting": "A-4-G_Cy5/BHQ2; [3]", "result": 68.96, "unit": "°C"}, {"measurement": "ΔTm (° C.)", "setting": "A-4-G_Cy5/BHQ2; [3]", "result": 1.46, "unit": "°C"}, {"measurement": "Tm (° C.) with compound", "setting": "A-4-G_Cy5/BHQ2; Single probe, 50 nM RNA", "result": 68.78, "unit": "°C"}, {"measurement": "ΔTm (° C.)", "setting": "A-4-G_Cy5/BHQ2; Single probe, 50 nM RNA", "result": 1.41, "unit": "°C"}, {"measurement": "Tm (° C.) with compound", "setting": "MGA-N_FAM/BHQ1; [4]", "result": 74.22, "unit": "°C"}, {"measurement": "ΔTm (° C.)", "setting": "MGA-N_FAM/BHQ1; [4]", "result": 0.11, "unit": "°C"}, {"measurement": "Tm (° C.) with compound", "setting": "MGA-N_FAM/BHQ1; Single probe, 50 nM RNA", "result": 74.03, "unit": "°C"}, {"measurement": "ΔTm (° C.)", "setting": "MGA-N_FAM/BHQ1; Single probe, 50 nM RNA", "result": 0.33, "unit": "°C"}, {"measurement": "Tm (° C.) with compound", "setting": "FMNA_Alexa532/BHQ1; [5]", "result": 78.07, "unit": "°C"}, {"measurement": "ΔTm (° C.)", "setting": "FMNA_Alexa532/BHQ1; [5]", "result": "−0.02", "unit": "°C"}, {"measurement": "Tm (° C.) with compound", "setting": "FMNA_Alexa532/BHQ1; Single probe, 50 nM RNA", "result": 78.03, "unit": "°C"}, {"measurement": "ΔTm (° C.)", "setting": "FMNA_Alexa532/BHQ1; Single probe, 50 nM RNA", "result": 0.09, "unit": "°C"}, {"measurement": "Tm (° C.) with compound", "setting": "TAR21-G3_Texas Red/BHQ2; [6]", "result": 85.75, "unit": "°C"}, {"measurement": "ΔTm (° C.)", "setting": "TAR21-G3_Texas Red/BHQ2; [6]", "result": "−0.02", "unit": "°C"}, {"measurement": "Tm (° C.) with compound", "setting": "TAR21-G3_Texas Red/BHQ2; Single probe, 50 nM RNA", "result": 85.80, "unit": "°C"}, {"measurement": "ΔTm (° C.)", "setting": "TAR21-G3_Texas Red/BHQ2; Single probe, 50 nM RNA", "result": 0.07, "unit": "°C"}, {"measurement": "Tm increase (in words)", "setting": "[1]", "result": "Tm increase was obtained only at wavelengths corresponding to A-4-G_Cy5/BHQ2"}]}
{"smiles": "CC1CCc2c(N3CCC(O)CC3)c(F)cc3c(=O)c(C(=O)O)cn1c23", "note": "(centres unmarked) [NDFX, nadifloxacin]", "values": [{"measurement": "change of Tm value (in words)", "setting": "A-4-G_Cy5/BHQ2 probe", "result": "does not cause changes in the Tm value"}, {"measurement": "ΔTm", "setting": "A-4-G_Cy5/BHQ2 probe; Table 7, A-4-G", "result": 0.15}, {"measurement": "ΔTm", "setting": "A-4-G_Cy5/BHQ2 probe; rounded", "result": 0.2, "unit": "°C"}, {"measurement": "change of Tm value (in words)", "setting": "[2]", "result": "does not cause changes in the Tm value"}, {"measurement": "ΔTm", "setting": "[2]; Table 7, SV-NL", "result": 0.01}, {"measurement": "ΔTm", "setting": "[2]; rounded", "result": 0.0, "unit": "°C"}]}
